“And” between values parts separate entries of the source, which are not always exact repeats. Equal values may be shown once. In the oligonucleotide strings, read from the 5' end, every base follows the letter of its sugar. An asterisk marks phosphorothioate; unmarked linkages are phosphodiester. Other units and linkages are bracketed, terminal groups are in braces. A string of capitals states the bases alone. e = 2'-O-(2-methoxyethyl) (MOE); [5mC] = 5-methylcytosine
Tested on: HeLa cells
Experiment: Cell cycle assay in HeLa cells
Assay type: cell-based, human
Conditions: HeLa cells
[1] = 150 nM oligomeric compound, 24 hours, relative to untreated control (UTC = 100)
[2] = 150 nM oligomeric compound, 48 hours after treatment, relative to untreated control (UTC=100)
[3] = 150 nM, 48 hours, relative to untreated control
[4] = 25 nM, 48 hours, percentage of cells in phase, average of replicates
[5] = 50 nM, 48 hours, percentage of cells in phase, average of replicates
[6] = 100 nM, 48 hours, percentage of cells in phase, average of replicates
[7] = 150 nM, 48 hours, percentage of cells in phase, average of replicates

Substance | % cells aneuploid [1] | % cells in cell cycle phase G1 [1] | % cells in cell cycle phase G2/M [1] | % cells in cell cycle phase S [1] | % cells in cell cycle phase subG1 [1] | % cells in cell cycle phase: G1 [2] | % cells in cell cycle phase: G2/M [2] | % cells in cell cycle phase: S [2] | % cells in cell cycle phase: aneuploid [2] | % cells in cell cycle phase: subG1 [2] | % cells in cell cycle phase G1 [3] | % cells in cell cycle phase G2/M [3] | % cells in cell cycle phase S [3] | % cells in cell cycle phase aneuploid [3] | % cells in cell cycle phase subG1 [3] | also measured
327896 (antisense eA*e[5mC]*eA*eG*eT*eT*e[5mC]*eT*eT*e[5mC]*eA*eA*e[5mC]*eT*eG*eG*e[5mC]*eA*eG*e[5mC]*eT*eT) [compound 327896] | 65% | 83% | 128% | 103% | 121% | 55% | 194% | 140% | 66% | 886% | 103% | 106% | 94% | 144% | 95% | –
327897 (antisense eA*e[5mC]*eA*eG*eG*e[5mC]*e[5mC]*eG*eG*eG*eA*e[5mC]*eA*eA*eG*eT*eG*e[5mC]*eA*eA*eT*eA) [compound 327897] | 69% and 54% | 114% and 128% | 115% and 100% | 80% and 74% | 143% and 180% | 100% and 94% | 95% and 105% | 103% and 114% | 84% and 63% | 134% and 125% | – | – | – | – | – | –
327901 (antisense eT*eG*eA*eG*e[5mC]*eT*eA*e[5mC]*eA*eG*eT*eG*e[5mC]*eT*eT*e[5mC]*eA*eT*e[5mC]*eT*e[5mC]*eA) [compound 327901] | 90% | 101% | 110% | 94% | 108% | 98% | 103% | 104% | 104% | 93% | – | – | – | – | – | –
327902 (antisense eG*eG*e[5mC]*eT*eG*eT*e[5mC]*eA*eA*eT*eT*e[5mC]*eA*eT*eA*eG*eG*eT*e[5mC]*eA*eG) [compound 327902] | 66% and 98% | 57% and 44% | 176% and 163% | 106% and 121% | 178% and 175% | 39% and 44% | 208% and 205% | 171% and 166% | 81% and 87% | – | 108% | 93% | 96% | 162% | 94% | % cells in cell cycle phase: G2/M (25 nM, 48 hours): 19%; % cells in cell cycle phase: G1 [4]: 57%; % cells in cell cycle phase: S [4]: 23%; % cells in cell cycle phase: aneuploid [4]: 13%; % cells in cell cycle phase: subG1 [4]: 1.6%; % cells in cell cycle phase: G2/M (50 nM, 48 hours): 20%; % cells in cell cycle phase: G1 [5]: 51%; % cells in cell cycle phase: S [5]: 30%; % cells in cell cycle phase: aneuploid [5]: 14%; % cells in cell cycle phase: subG1 [5]: 2.4%; % cells in cell cycle phase: G2/M (100 nM, 48 hours): 27%; % cells in cell cycle phase: G1 [6]: 43%; % cells in cell cycle phase: S [6]: 30%; % cells in cell cycle phase: aneuploid [6]: 11%; % cells in cell cycle phase: subG1 [6]: 3.1%; % cells in cell cycle phase: G2/M (150 nM, 48 hours): 28%; % cells in cell cycle phase: G1 [7]: 36%; % cells in cell cycle phase: S [7]: 36%; % cells in cell cycle phase: aneuploid [7]: 12%; % cells in cell cycle phase: subG1 [7]: 6.3%
327903 (antisense eA*eA*e[5mC]*eT*eA*eT*eA*e[5mC]*eA*eA*e[5mC]*e[5mC]*eT*eA*e[5mC]*eT*eA*e[5mC]*e[5mC]*eT*e[5mC]*eA) [compound 327903] | 98% | 92% | 106% | 104% | 118% | 102% | 98% | 95% | 94% | 74% | – | – | – | – | – | –
327904 (antisense eA*e[5mC]*eT*e[5mC]*eA*e[5mC]*e[5mC]*eG*eA*e[5mC]*eA*eG*e[5mC]*eG*eT*eT*eG*eA*eA*eT*eG*eT*eT) [compound 327904] | 89% | 99% | 99% | 102% | 114% | 87% | 114% | 126% | 80% | 116% | – | – | – | – | – | –
327905 (antisense e[5mC]*eA*eG*eA*e[5mC]*eT*e[5mC]*e[5mC]*eG*eG*eT*eG*eG*eA*eA*eT*eG*eA*eA*eG*eG*eA) [compound 327905] | 50% and 98% | 99% and 94% | 129% and 121% | 88% and 95% | 144% and 149% | 48% and 78% | 150% and 122% | 194% and 143% | 67% and 99% | – | 108% | 90% | 99% | 164% | 55% | % cells in cell cycle phase: G2/M (25 nM, 48 hours): 18%; % cells in cell cycle phase: G1 [4]: 57%; % cells in cell cycle phase: S [4]: 24%; % cells in cell cycle phase: aneuploid [4]: 12%; % cells in cell cycle phase: subG1 [4]: 1.7%; % cells in cell cycle phase: G2/M (50 nM, 48 hours): 20%; % cells in cell cycle phase: G1 [5]: 50%; % cells in cell cycle phase: S [5]: 30%; % cells in cell cycle phase: aneuploid [5]: 12%; % cells in cell cycle phase: subG1 [5]: 2.1%; % cells in cell cycle phase: G2/M (100 nM, 48 hours): 24%; % cells in cell cycle phase: G1 [6]: 46%; % cells in cell cycle phase: S [6]: 30%; % cells in cell cycle phase: aneuploid [6]: 14%; % cells in cell cycle phase: subG1 [6]: 2.5%; % cells in cell cycle phase: G2/M (150 nM, 48 hours): 24%; % cells in cell cycle phase: G1 [7]: 38%; % cells in cell cycle phase: S [7]: 38%; % cells in cell cycle phase: aneuploid [7]: 12%; % cells in cell cycle phase: subG1 [7]: 4.5%

— patent publication US8178506B2, “Oligomeric compounds and compositions for use in modulation of small non-coding RNAs” (Regulus Therapeutics Inc., priority 2003, dated 2012)
